# Test results published in patent US12466813B2, “PRC1 inhibitors and methods of treatment therewith” (The Regents of the University of Michigan, priority 2018, dated 2025).
# Target: T1, RING1B-BMI1 (Homo sapiens, UniProt Q99496)
# T1 sequence (Q99496 1-336): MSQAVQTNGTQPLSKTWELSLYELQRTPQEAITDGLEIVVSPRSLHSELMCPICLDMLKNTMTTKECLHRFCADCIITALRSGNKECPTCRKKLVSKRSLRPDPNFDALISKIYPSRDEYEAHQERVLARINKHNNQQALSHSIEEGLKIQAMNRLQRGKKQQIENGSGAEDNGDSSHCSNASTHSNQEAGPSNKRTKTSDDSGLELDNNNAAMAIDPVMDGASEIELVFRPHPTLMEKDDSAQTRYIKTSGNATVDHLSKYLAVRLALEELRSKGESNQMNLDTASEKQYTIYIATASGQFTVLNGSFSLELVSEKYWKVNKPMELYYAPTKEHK
# T1 sequence (P35226 1-326 partner): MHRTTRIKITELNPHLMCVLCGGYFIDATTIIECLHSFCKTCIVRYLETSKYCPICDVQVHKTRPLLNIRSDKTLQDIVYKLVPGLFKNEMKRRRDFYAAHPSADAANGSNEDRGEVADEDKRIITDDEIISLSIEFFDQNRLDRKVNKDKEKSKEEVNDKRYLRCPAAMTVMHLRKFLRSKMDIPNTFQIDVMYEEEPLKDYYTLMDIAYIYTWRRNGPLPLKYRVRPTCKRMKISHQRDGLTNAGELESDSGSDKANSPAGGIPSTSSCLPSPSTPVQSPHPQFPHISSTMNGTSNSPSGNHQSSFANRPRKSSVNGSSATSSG
# Test: KD classes of Table A (direct binding to Ring1B-Bmi1)
# Details: class given in Table A
# Method: Experiments were conducted during development of embodiments herein to develop small molecule inhibitors of PRC1 by targeting the Ring1B-BMI1 E3 ligase. These compounds bind directly to Ring1B-Bmi1 with low-micromolar affinity and inhibit PRC1 in vitro and in cells. […] Experiments were conducted during development of embodiments herein to test COMPOUND 1 in leukemia stem cell models represented by TEX cells (Ref. 22; herein incorporated by reference in its entirety) and M9-ENL1 cells (Ref. 23; herein incorporated by reference in its entirety). […] In some embodiments, COMPOUND 1 and COMPOUND 1 analogs are find use as agents in targeting leukemia and other cancer stem cells.
# The compounds listed in Table A have been synthesized and/or tested for activity in inhibiting activity of PRC1 complex, and are within the scope herein.
row,SMILES,Kd [µM]
1,O=C(O)c1ccc(-c2cccc3[nH]ccc23)[nH]1 [compound 134],> 100
2,CCc1c(-c2cccc3[nH]ccc23)[nH]c(C(=O)O)c1-c1cccc(C)c1 [compound 99],50 to 100
3,CCc1c(-c2cccc3[nH]ccc23)[nH]c(C(=O)O)c1-c1cccc(F)c1 [compound 86],20 to 50
4,CC(C)c1c(-c2cc(C(F)(F)F)cc3[nH]ccc23)[nH]c(C(=O)O)c1-c1c(Cl)ccc2[nH]ccc12 [compound 10],< 20
5,CC(C)c1c(-c2cc(F)cc3[nH]ccc23)[nH]c(C(=O)O)c1-c1cccc(Oc2nccs2)c1 [compound 64],< 20
6,CC(C)c1c(-c2cc(F)cc3[nH]ccc23)[nH]c(C(=O)O)c1-c1ccnc2[nH]ccc12 [compound 74],< 20
7,CCc1c(-c2c(C)ccc3[nH]ccc23)[nH]c(C(=O)O)c1-c1cccc2[nH]ccc12 [compound 2],< 20
8,CCc1c(-c2cccc3[nH]ccc23)[nH]c(C(=O)O)c1-c1cccc2c1ccn2CCO [compound 77],20 to 50
9,O=C(O)c1ccc(-c2cccc(O)c2)[nH]1 [compound 156],> 100
10,CC(C)c1c(-c2cc(F)cc3[nH]ccc23)[nH]c(C(=O)O)c1-c1c(Cl)ccc2[nH]ccc12 [compound 14],< 20
11,COc1ccc(-c2c(C(=O)O)[nH]c(-c3cccc4[nH]ccc34)c2C(C)C)c(Cl)c1 [compound 19],< 20
12,CCc1c(-c2cccc3[nH]ccc23)[nH]c(C(=O)O)c1CCc1ccccc1 [compound 90],50 to 100
13,COCCC(=O)NCCc1c[nH]c2cc(F)cc(-c3[nH]c(C(=O)O)c(-c4c(Cl)ccc5[nH]ccc45)c3C(C)C)c12 [compound 72],< 20
14,CCc1c(-c2cccc3[nH]ccc23)[nH]c(C(=O)O)c1-c1ccccc1-c1ccccc1 [compound 96],50 to 100
15,CCc1c(-c2c(OC)cccc2OC)[nH]c(C(=O)O)c1-c1ccc(OC)cc1Cl [compound 104],> 100
16,CCc1c(-c2cccc3[nH]ccc23)[nH]c(C(=O)O)c1-c1c(Cl)ccc2[nH]ccc12 [compound 16],< 20
17,O=C(O)c1[nH]c(-c2cccc3[nH]ccc23)c(C2CC2)c1-c1cccc2[nH]ccc12 [compound 29],< 20
18,Cn1c(C(=O)O)ccc1-c1cccc2[nH]ccc12 [compound 123],> 100
19,COc1ccc(OC)c(-c2ccc(C(=O)O)[nH]2)c1 [compound 155],> 100
20,CCc1c(-c2cccc3[nH]ccc23)[nH]c(C(=O)O)c1-c1cccc2c1ccn2CC [compound 21],< 20
21,CCc1c(-c2cccc3[nH]ccc23)[nH]c(C(=O)O)c1-c1ccc2cc[nH]c2c1 [compound 25],< 20
22,Cc1ccc2[nH]ccc2c1-c1[nH]c(C(=O)O)c(-c2c(Cl)ccc3[nH]ccc23)c1C(C)C [compound 7],< 20
23,O=C(O)c1ccc(-c2cccc3c2ccn3C2CC2)[nH]1 [compound 119],> 100
24,CC(C)c1c(-c2cc(F)cc3[nH]ccc23)[nH]c(C(=O)O)c1-c1ccc2c(c1)OCCO2 [compound 61],< 20
25,CC(C)c1cc(-c2c(C(=O)O)[nH]c(-c3cc(F)cc4[nH]ccc34)c2C(C)C)c2ccn(CC(=O)O)c2c1 [compound 55],< 20
26,NCCn1ccc2c(-c3ccc(C(=O)O)[nH]3)cccc21 [compound 153],> 100
27,CCc1c(-c2c(C)ccc3[nH]ccc23)[nH]c(C(=O)O)c1-c1c(Cl)ccc2[nH]ccc12 [compound 6],< 20
28,CCc1cccc(-c2ccc(C(=O)O)[nH]2)c1 [compound 129],> 100
29,CCc1c(-c2cccc3[nH]ccc23)[nH]c(C(=O)O)c1-c1ccc(OC)cc1Cl [compound 24],< 20
30,CC(C)c1c(-c2cc(F)cc3[nH]cc(CCO)c23)[nH]c(C(=O)O)c1-c1c(Cl)ccc2[nH]ccc12 [compound 28],< 20

# Results, then the compound that gave them:
row,Kd [µM],SMILES
1,< 20,CC(C)c1c(-c2cc(F)cc3[nH]ccc23)[nH]c(CC(=O)O)c1-c1cccc2[nH]ccc12 [compound 215]
2,< 20,CC(C)c1c(-c2cc(F)cc3[nH]ccc23)[nH]c(C(=O)O)c1-c1ccnc2[nH]c(-c3ccccc3)cc12 [compound 251]
3,< 20,CCn1ccc2cc(-c3[nH]c(C(=O)O)c(-c4c(Cl)ccc5[nH]ccc45)c3C(C)C)ccc21 [compound 184]
4,< 20,CC(C)c1c(-c2cc(F)cc3[nH]ccc23)[nH]c(C(=O)O)c1-c1c(Cl)cnc2[nH]ccc12 [compound 245]
5,< 20,CC(C)c1c(-c2cc(F)cc3[nH]ccc23)[nH]c(C(=O)O)c1-c1cccc2[nH]c3c(c12)CCCC3=O [compound 211]
6,< 20,CC(C)Cc1cc2c(-c3c(C(=O)O)[nH]c(-c4cc(F)cc5[nH]ccc45)c3C(C)C)cccc2[nH]1 [compound 202]
7,< 20,COc1cc(-c2c(C(=O)O)[nH]c(-c3cc(F)cc4[nH]ccc34)c2C2CCCC2)c2cc[nH]c2c1 [compound 173]
8,< 20,COCCC(=O)NCCn1ccc2c(-c3c(C(=O)O)[nH]c(-c4cc(F)cc5[nH]ccc45)c3C(C)C)cc(OC)cc21 [compound 176]
9,< 20,CC(C)c1c(-c2cccc3[nH]ccc23)c(C(=O)O)n2c1-c1cc(F)cc3ccn(c13)C(=O)C2 [compound 274]
10,< 20,CC(C)c1c(-c2cc(F)cc3[nH]ccc23)[nH]c(C(N)=O)c1-c1cccc2[nH]c(C(=O)O)cc12 [compound 191]
11,< 20,CC(C)c1c(-c2cc(F)cc3[nH]ccc23)[nH]c(CS(C)(=O)=O)c1-c1cccc2[nH]ccc12 [compound 220]
12,< 20,Cc1cnc2[nH]ccc2c1-c1c(C(=O)O)[nH]c(-c2cc(F)cc3[nH]ccc23)c1C(C)C [compound 209]
13,< 20,CC(C)c1c(-c2cc(F)cc3[nH]ccc23)[nH]c(C(=O)O)c1-c1cc(C(=O)NCC2CC2)cc2[nH]ccc12 [compound 199]
14,< 20,CC(C)c1c(-c2cc(F)cc3[nH]ccc23)[nH]c(C(=O)O)c1-c1cccc2c1ccn2CS(N)(=O)=O [compound 263]
15,< 20,CC(C)c1c(-c2cc(F)cc3[nH]ccc23)[nH]c(C(=O)O)c1-c1cccc2ncoc12 [compound 205]
16,< 20,CC(C)c1c(-c2cc(F)cc3[nH]ccc23)[nH]c(C(=O)O)c1-c1cc(OC2COC2)cc2[nH]ccc12 [compound 236]
17,< 20,CC(C)c1c(-c2cc(F)cc3[nH]ccc23)[nH]c(C(=O)O)c1-c1ccnc2[nH]c(-c3nccs3)cc12 [compound 233]

row,Kd [µM],SMILES
1,< 20,CC(C)c1c(-c2cc(F)cc3[nH]ccc23)[nH]c(C(=O)O)c1-c1cccc2[nH]c(C(N)=O)cc12 [compound 190]
2,< 20,CC(C)c1c(-c2cc(F)cc3[nH]ccc23)[nH]c(C(=O)O)c1-c1cccc2[nH]c(-c3nnn[nH]3)cc12 [compound 194]
3,< 20,CC(C)c1c(-c2cccc3[nH]ccc23)c(C(=O)O)n2c1-c1cc(F)cc3ccn(c13)CC2 [compound 270]
4,> 100,CCCCc1c(-c2cccc3[nH]ccc23)[nH]c(C(=O)O)c1-c1ccccc1Cl [compound 162]
5,< 20,CC(C)c1c(-c2cc(F)cc3[nH]ccc23)[nH]c(C(=O)O)c1-c1cc(OC2CCC2)cc2[nH]ccc12 [compound 235]
6,< 20,CCc1c[nH]c2cc(OC)cc(-c3c(C(=O)O)[nH]c(-c4cc(F)cc5[nH]ccc45)c3C(C)C)c12 [compound 186]
7,< 20,CC(C)CCOc1cc(-c2c(C(=O)O)[nH]c(-c3cc(F)cc4[nH]ccc34)c2C(C)C)c2cc[nH]c2c1 [compound 196]
8,< 20,CC(C)c1c(-c2cc(F)cc3[nH]ccc23)[nH]c(C(=O)O)c1-c1cccc2scnc12 [compound 172]
9,< 20,CC(C)c1c(-c2cc(F)cc3[nH]ccc23)[nH]c(CCC(=O)O)c1-c1cccc2[nH]ccc12 [compound 216]
10,< 20,CC(C)c1c(-c2cc(F)cc3[nH]ccc23)[nH]c(C(=O)O)c1-c1cccc2[nH]c(C(=O)NCc3nccs3)cc12 [compound 262]
11,< 20,CC(C)c1c(-c2cc(F)cc3cc[nH]c23)[nH]c(C(=O)O)c1-c1c(Cl)ccc2[nH]ccc12 [compound 185]
12,< 20,CC(C)c1c(-c2cc(F)cc3[nH]ccc23)[nH]c(C(=O)O)c1-c1cccc2[nH]c(-c3ccno3)cc12 [compound 225]
13,< 20,CC(C)c1c(-c2cc(F)cc3[nH]ccc23)[nH]c(C(=O)O)c1-c1ccnc2[nH]c(-c3cc[nH]n3)cc12 [compound 249]
14,< 20,CC(C)c1c(-c2cc(F)cc3[nH]ccc23)[nH]c(C(=O)O)c1-c1cccc2[nH]c(C(=O)Nc3nccs3)cc12 [compound 261]
15,< 20,CC(C)c1c(-c2cc(F)cc3[nH]ccc23)[nH]c(C(=O)O)c1-c1cccc2ncccc12 [compound 268]
16,< 20,CC(C)c1c(-c2cc(F)cc3[nH]ccc23)[nH]c(C(=O)O)c1-c1ccnc2[nH]c(C3=CCN(S(C)(=O)=O)CC3)cc12 [compound 256]
